The source of these data is paper PMC3404744 (Molecular Pharmaceutics, 2011).

Data set [1] concerns 12 recombinant human UGT isoforms. The data set is described as follows: Phenotyping using 12 recombinant UGTs. The following applies: by CLint. It is filed as in vitro ADME.
Data set [2] deals with T1, UGT1A1 (Homo sapiens, UniProt P22309).
T1 sequence (P22309 26-533): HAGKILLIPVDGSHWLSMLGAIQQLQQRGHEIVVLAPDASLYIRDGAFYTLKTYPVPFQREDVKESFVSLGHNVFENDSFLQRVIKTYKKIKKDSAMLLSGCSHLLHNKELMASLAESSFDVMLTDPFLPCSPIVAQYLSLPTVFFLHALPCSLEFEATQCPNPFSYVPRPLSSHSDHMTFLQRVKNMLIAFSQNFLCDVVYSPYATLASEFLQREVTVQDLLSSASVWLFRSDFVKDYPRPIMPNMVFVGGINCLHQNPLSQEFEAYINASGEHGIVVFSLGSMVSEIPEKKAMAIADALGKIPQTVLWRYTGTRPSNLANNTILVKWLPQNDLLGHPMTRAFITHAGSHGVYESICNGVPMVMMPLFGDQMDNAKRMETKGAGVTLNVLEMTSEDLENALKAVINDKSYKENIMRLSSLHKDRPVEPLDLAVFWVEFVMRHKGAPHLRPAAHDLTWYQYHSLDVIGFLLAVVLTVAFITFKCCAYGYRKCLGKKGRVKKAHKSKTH
The data set is described as follows: Glucuronidation kinetics with recombinant human UGT1A1. Format: in vitro ADME. The following applies: for Glucuronide isomers formed by UGT1A1: recombinant UGT1A1.

For data set [3], the system named is pooled human liver microsomes (pHLM). The data set is described as follows: Glucuronidation kinetic profile in pooled human liver microsomes. It is filed as in vitro ADME. Conditions: flavonoids 4′-O-glucuronidation, SN-38 glucuronidation.
For data set [4], the target named is T1, UGT1A1. It is filed as in vitro ADME.
In the next data set the target is T2, UGT1A9 (Homo sapiens, UniProt O60656).
T2 sequence (O60656 26-530): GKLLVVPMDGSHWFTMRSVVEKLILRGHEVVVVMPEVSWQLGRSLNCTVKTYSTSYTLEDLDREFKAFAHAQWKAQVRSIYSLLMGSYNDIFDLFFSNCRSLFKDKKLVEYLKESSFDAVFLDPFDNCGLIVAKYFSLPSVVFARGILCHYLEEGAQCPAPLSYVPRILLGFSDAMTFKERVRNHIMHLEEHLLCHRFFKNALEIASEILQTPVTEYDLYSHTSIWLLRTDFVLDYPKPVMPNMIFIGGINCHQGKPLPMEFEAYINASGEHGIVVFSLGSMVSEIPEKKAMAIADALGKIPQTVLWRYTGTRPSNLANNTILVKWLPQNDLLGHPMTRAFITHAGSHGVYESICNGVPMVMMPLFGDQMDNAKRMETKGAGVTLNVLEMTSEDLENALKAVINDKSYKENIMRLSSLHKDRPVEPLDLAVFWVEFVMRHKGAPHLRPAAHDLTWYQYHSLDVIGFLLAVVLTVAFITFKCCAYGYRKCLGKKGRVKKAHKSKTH
The data set is described as follows: Glucuronidation kinetics with recombinant human UGT1A9. Format: in vitro ADME. Conditions: 10 μM.

For data set [5] the following is noted: after a standard therapy; cited from earlier work.

SMILES strings stand for the structures.

For `O=c1c(O)c(-c2ccc(O)c(O)c2)oc2ccccc12` [33′4′THF, 3,3′,4′-trihydroxyflavone], the “Main isoforms glucuronidating the flavonoid” value in data set [1] is “UGT1A1, 1A7 and 1A9”. Besides, on UGT1A1 [2], the “Km for recombinant UGT1A1 (4′-O-glucuronidation) compared with pooled HLM” value is listed as “essentially identical”; the “Glucuronide isomers formed by UGT1A1” value was 3′-O- and 4′-O-glucuronide. Further, the “Pattern of kinetic profile” value in data set [3] is “substrate inhibition”.
For the compound `O=c1c(O)c(-c2ccc(O)cc2)oc2ccc(O)cc12` [364′THF, 3,6,4′-trihydroxyflavone], the “Main isoforms glucuronidating the flavonoid” value in data set [1] is “UGT1A1, 1A7 and 1A9”. For the same compound, on UGT1A1 [2], the “Km for recombinant UGT1A1 (4′-O-glucuronidation) compared with pooled HLM” value is listed as “essentially identical”; the “Glucuronide isomers formed by UGT1A1” value is 3-O-, 6-O-, and 4′-O-glucuronide. Besides, the “Pattern of kinetic profile” value in data set [3] is reported as “substrate inhibition”.
As to `CCc1c2c(nc3ccc(O)cc13)-c1cc3c(c(=O)n1C2)COC(=O)[C@]3(O)CC` [SN-38, 7-ethyl-10-hydroxycamptothecin], on UGT1A1 [4], the “Glucuronidation in pHLM correlated with UGT1A1 activities (RAF approach)” value was determined as 103 ± 8%. The “UGT1A9 activity, folds less than that of UGT1A1” value at UGT1A9 is reported as about 5 folds. Moreover, the In vivo concentration in data set [5] is under 0.1 µM. Moreover, the “Pattern of kinetic profile” value in data set [3] is recorded as “substrate inhibition”.
